Patent US8846918B2, “Compounds useful as inhibitors of ATR kinase” (Vertex Pharmaceuticals Incorporated, priority 2011, dated 2014)
pKi: −log10 of the molar value.

Target: T1, ATR kinase (Homo sapiens, UniProt Q13535)
T1 construct: Assays were carried out at 25° C. in the presence of 5 nM full-length ATR
Assay: ATR Inhibition Assay (radioactive-phosphate incorporation)
Format: biochemical
Conditions: Ki(app); 5 nM full-length ATR, 10 μM ATP, 800 μM target peptide, 25° C.
Procedure: Compounds were screened for their ability to inhibit ATR kinase using a radioactive-phosphate incorporation assay. Assays were carried out in a mixture of 50 mM Tris/HCl (pH 7.5), 10 mM MgCl2 and 1 mM DTT. Final substrate concentrations were 10 μM [γ-33P]ATP (3 mCi 33P ATP/mmol ATP, Perkin Elmer) and 800 μM target peptide (ASELPASQPQPFSAKKK).
Assays were carried out at 25° C. in the presence of 5 nM full-length ATR. An assay stock buffer solution was prepared containing all of the reagents listed above, with the exception of ATP and the test compound of interest. 13.5 μL of the stock solution was placed in a 96 well plate followed by addition of 2 μL of DMSO stock containing serial dilutions of the test compound (typically starting from a final concentration of 15 μM with 3-fold serial dilutions) in duplicate (final DMSO concentration 7%). The plate was pre-incubated for 10 minutes at 25° C. and the reaction initiated by addition of 15 μL [γ-33P]ATP (final concentration 10 μM).
The reaction was stopped after […] by the addition of 300 μL 0.1M phosphoric acid containing 2 mM ATP. […]
After removing mean background values for all of the data points, Ki(app) data were calculated from non-linear regression analysis of the initial rate data using the Prism software package (GraphPad Prism version 3.0cx for Macintosh, GraphPad Software, San Diego Calif., USA).

T1 sequence (Q13535 whole entry): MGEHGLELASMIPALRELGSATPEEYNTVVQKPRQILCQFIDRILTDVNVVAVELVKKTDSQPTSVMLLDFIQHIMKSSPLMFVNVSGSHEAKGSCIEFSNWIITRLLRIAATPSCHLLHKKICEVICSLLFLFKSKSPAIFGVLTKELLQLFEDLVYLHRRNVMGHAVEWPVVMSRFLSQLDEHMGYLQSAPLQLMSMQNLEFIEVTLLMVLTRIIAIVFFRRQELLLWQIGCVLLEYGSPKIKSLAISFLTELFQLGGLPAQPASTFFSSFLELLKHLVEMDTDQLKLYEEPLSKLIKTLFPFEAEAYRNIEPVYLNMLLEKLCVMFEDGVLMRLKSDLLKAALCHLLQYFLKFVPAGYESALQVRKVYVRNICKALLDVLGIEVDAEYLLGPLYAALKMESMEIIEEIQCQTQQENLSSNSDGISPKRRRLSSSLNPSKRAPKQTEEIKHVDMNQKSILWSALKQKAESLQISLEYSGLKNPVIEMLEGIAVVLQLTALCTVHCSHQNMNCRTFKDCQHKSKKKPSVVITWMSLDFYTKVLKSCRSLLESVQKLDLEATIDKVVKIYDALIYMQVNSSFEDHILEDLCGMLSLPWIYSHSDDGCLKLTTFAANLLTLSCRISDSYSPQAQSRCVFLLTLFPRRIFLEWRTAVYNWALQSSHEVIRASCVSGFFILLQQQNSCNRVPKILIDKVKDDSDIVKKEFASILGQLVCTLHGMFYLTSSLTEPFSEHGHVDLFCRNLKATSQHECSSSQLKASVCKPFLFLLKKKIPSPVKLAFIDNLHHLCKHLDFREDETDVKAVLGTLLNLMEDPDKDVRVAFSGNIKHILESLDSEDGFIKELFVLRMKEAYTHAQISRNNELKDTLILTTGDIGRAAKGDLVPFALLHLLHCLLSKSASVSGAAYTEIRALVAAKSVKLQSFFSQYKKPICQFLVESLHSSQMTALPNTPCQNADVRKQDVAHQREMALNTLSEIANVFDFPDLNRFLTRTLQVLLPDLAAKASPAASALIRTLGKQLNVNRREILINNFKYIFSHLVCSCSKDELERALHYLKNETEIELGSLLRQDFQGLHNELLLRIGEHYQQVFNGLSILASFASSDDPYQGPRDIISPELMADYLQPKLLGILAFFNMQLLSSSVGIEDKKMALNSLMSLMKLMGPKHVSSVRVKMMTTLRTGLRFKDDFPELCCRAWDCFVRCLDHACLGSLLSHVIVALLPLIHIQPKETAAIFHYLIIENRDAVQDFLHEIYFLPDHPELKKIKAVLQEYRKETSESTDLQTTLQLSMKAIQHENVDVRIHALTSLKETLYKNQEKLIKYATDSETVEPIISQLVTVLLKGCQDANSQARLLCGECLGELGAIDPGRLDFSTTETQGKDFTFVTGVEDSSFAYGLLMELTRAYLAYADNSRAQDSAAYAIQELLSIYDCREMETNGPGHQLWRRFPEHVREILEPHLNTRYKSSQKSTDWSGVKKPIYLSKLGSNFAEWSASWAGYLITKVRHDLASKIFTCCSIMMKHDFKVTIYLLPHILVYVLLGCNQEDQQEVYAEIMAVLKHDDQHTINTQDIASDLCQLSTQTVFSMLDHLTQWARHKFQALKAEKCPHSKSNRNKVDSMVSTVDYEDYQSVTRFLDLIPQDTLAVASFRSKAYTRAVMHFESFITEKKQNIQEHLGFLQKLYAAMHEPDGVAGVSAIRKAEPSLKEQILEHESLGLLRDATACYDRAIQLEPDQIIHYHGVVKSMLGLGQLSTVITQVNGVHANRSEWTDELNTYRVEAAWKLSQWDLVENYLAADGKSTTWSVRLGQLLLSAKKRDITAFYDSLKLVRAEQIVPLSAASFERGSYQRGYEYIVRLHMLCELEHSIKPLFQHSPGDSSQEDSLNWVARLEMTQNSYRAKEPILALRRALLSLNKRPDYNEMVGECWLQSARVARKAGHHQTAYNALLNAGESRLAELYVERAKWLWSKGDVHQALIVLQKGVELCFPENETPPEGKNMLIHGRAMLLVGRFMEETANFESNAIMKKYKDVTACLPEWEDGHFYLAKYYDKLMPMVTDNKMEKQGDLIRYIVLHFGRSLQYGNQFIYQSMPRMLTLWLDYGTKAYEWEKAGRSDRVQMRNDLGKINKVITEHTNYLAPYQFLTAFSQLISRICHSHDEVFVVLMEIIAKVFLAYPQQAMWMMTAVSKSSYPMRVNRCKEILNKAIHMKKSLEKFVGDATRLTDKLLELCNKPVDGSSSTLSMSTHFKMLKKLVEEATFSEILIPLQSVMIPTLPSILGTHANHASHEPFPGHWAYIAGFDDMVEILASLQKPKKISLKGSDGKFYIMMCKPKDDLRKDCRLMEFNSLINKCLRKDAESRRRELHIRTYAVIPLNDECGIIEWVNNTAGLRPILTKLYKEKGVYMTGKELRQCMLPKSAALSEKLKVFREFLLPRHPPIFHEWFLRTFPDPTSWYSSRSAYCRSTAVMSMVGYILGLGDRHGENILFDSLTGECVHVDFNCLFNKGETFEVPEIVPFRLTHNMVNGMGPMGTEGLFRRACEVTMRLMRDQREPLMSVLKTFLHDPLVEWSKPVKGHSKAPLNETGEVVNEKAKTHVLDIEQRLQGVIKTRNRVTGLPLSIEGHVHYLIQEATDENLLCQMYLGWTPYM

pKi | Compound
7.05 | 2-(4-(5-amino-6-(4-iodo-3-(4-(((tetrahydro-2H-pyran-4-yl)amino)methyl)phenyl)isoxazol-5-yl)pyrazin-2-yl)pyridin-2-yl)-2-methylpropanenitrile [Compound I-2]
7.80 | CC(C)S(=O)(=O)c1ccc(-c2cnc(N)c(-c3onc(-c4ccc(CNC5CCOCC5)cc4)c3I)n2)cc1 [Compound I-1, 3-(4-iodo-3-(4-(((tetrahydro-2H-pyran-4-yl)amino)methyl)phenyl)isoxazol-5-yl)-5-(4-(isopropylsulfonyl)phenyl)pyrazin-2-amine]
